From PubChem BioAssay (NCI)
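A five-concentration, 48-hour dose response in 96-well plates underlies each endpoint, interpolated linearly between surrounding concentrations. Definition used: TGI = concentration required for complete inhibition of growth.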

How the values were obtained:
Assay in all cases: NCI anticancer screen, dose series, 48 h
RPMI-8226 leukemia = system: RPMI-8226 leukemia
SK-MEL-28 melanoma = system: SK-MEL-28 melanoma
SF-268 CNS = system: SF-268 CNS
MALME-3M melanoma = system: MALME-3M melanoma
LOX IMVI melanoma = system: LOX IMVI melanoma
K-562 leukemia = system: K-562 leukemia
MDA-MB-435 = system: MDA-MB-435
OVCAR-8 ovarian = system: OVCAR-8 ovarian
UACC-257 melanoma = system: UACC-257 melanoma
SK-MEL-5 melanoma = system: SK-MEL-5 melanoma
MDA-MB-231 breast = system: MDA-MB-231 breast
NCI-H226 lung = system: NCI-H226 lung
EKVX NSCLC = system: EKVX NSCLC
HT29 colon = system: HT29 colon
SR leukemia = system: SR leukemia
SNB-19 CNS = system: SNB-19 CNS
RXF 393 renal = system: RXF 393 renal
IGROV1 ovarian = system: IGROV1 ovarian
NCI/ADR-RES ovarian = system: NCI/ADR-RES ovarian
SF-295 CNS = system: SF-295 CNS
NCI-H460 lung = system: NCI-H460 lung
T-47D breast = system: T-47D breast
M14 melanoma = system: M14 melanoma
SW-620 colon = system: SW-620 colon
UO-31 renal = system: UO-31 renal
HCC-2998 colon = system: HCC-2998 colon
ACHN renal = system: ACHN renal
KM12 colon = system: KM12 colon
HOP-62 NSCLC = system: HOP-62 NSCLC
MCF7 breast = system: MCF7 breast
SN12C renal = system: SN12C renal
BT-549 breast = system: BT-549 breast
U251 CNS = system: U251 CNS
HCT-15 colon = system: HCT-15 colon
OVCAR-5 ovarian = system: OVCAR-5 ovarian
COLO 205 colon = system: COLO 205 colon
DU-145 prostate = system: DU-145 prostate
TK-10 renal = system: TK-10 renal
MDA-N = system: MDA-N
A549 NSCLC = system: A549 NSCLC
HS 578T breast = system: HS 578T breast
HCT-116 colon = system: HCT-116 colon
OVCAR-4 ovarian = system: OVCAR-4 ovarian
786-0 renal = system: 786-0 renal
HOP-92 NSCLC = system: HOP-92 NSCLC
SNB-75 CNS = system: SNB-75 CNS
SF-539 CNS = system: SF-539 CNS
CAKI-1 renal = system: CAKI-1 renal
HL-60(TB) leukemia = system: HL-60(TB) leukemia
MOLT-4 leukemia = system: MOLT-4 leukemia
OVCAR-3 ovarian = system: OVCAR-3 ovarian
NCI-H522 lung = system: NCI-H522 lung
SK-MEL-2 melanoma = system: SK-MEL-2 melanoma
NCI-H23 lung = system: NCI-H23 lung
CCRF-CEM leukemia = system: CCRF-CEM leukemia
UACC-62 melanoma = system: UACC-62 melanoma
SK-OV-3 ovarian = system: SK-OV-3 ovarian
PC-3 prostate = system: PC-3 prostate
A498 renal = system: A498 renal

In the case of `CCOC(=O)CCC(NC(=O)c1ccc(Nc2cnc3cc(C(F)(F)F)ccc3n2)cc1)C(=O)OCC` (stereo not drawn), the TGI (RPMI-8226 leukemia) is reported as > 100 µM, the TGI (SK-MEL-28 melanoma) is reported as > 100 µM and the TGI (SF-268 CNS) is reported as > 78.4 µM. The TGI (MALME-3M melanoma) was > 100 µM, the TGI (LOX IMVI melanoma) was > 100 µM and the TGI (K-562 leukemia) was > 100 µM. For the same molecule, the TGI (MDA-MB-435) was > 100 µM, the TGI (OVCAR-8 ovarian) was > 100 µM and the TGI (UACC-257 melanoma) was > 100 µM. The TGI (SK-MEL-5 melanoma) was > 100 µM, the TGI (MDA-MB-231 breast) was > 100 µM and the TGI (NCI-H226 lung) was > 100 µM. For the same molecule, the TGI (EKVX NSCLC) was > 100 µM, the TGI (HT29 colon) was > 100 µM and the TGI (SR leukemia) was > 100 µM. For the same molecule, the TGI (SNB-19 CNS) was > 47.8 µM, the TGI (RXF 393 renal) was 9.64 µM and the TGI (IGROV1 ovarian) was > 100 µM. For the same molecule, the TGI (NCI/ADR-RES ovarian) was > 100 µM, the TGI (SF-295 CNS) was 26 µM and the TGI (NCI-H460 lung) was > 100 µM. The TGI (T-47D breast) was > 100 µM, the TGI (M14 melanoma) was > 100 µM and the TGI (SW-620 colon) was > 100 µM. The TGI (UO-31 renal) was > 100 µM, the TGI (HCC-2998 colon) was > 100 µM and the TGI (ACHN renal) was > 100 µM. The TGI (KM12 colon) was > 100 µM, the TGI (HOP-62 NSCLC) was 34.7 µM and the TGI (MCF7 breast) was > 31.6 µM. For the same molecule, the TGI (SN12C renal) was > 100 µM, the TGI (BT-549 breast) was 49 µM and the TGI (U251 CNS) was 15.3 µM. For the same molecule, the TGI (HCT-15 colon) was > 100 µM, the TGI (OVCAR-5 ovarian) was > 100 µM and the TGI (COLO 205 colon) was > 100 µM. The TGI (DU-145 prostate) was > 100 µM, the TGI (TK-10 renal) was > 100 µM and the TGI (MDA-N) was > 100 µM. For the same molecule, the TGI (A549 NSCLC) was > 100 µM, the TGI (HS 578T breast) was 47.7 µM and the TGI (HCT-116 colon) was > 100 µM. For the same molecule, the TGI (OVCAR-4 ovarian) was > 100 µM, the TGI (786-0 renal) was > 66.8 µM and the TGI (HOP-92 NSCLC) was 49.6 µM. For the same molecule, the TGI (SNB-75 CNS) was 5.91 µM, the TGI (SF-539 CNS) was > 100 µM and the TGI (CAKI-1 renal) was 47 µM. The TGI (HL-60(TB) leukemia) was > 100 µM, the TGI (MOLT-4 leukemia) was > 100 µM and the TGI (OVCAR-3 ovarian) was > 100 µM. The TGI (NCI-H522 lung) was > 100 µM, the TGI (SK-MEL-2 melanoma) was > 100 µM and the TGI (NCI-H23 lung) was > 100 µM. The TGI (CCRF-CEM leukemia) was > 100 µM.

With `COc1cc(C2=C(C)[C@@H]3CN(CC=C3c3ccc(Cl)cc3)C2)c(S(=O)(=O)O)cc1OC` the TGI (RPMI-8226 leukemia) was > 100 µM, the TGI (SK-MEL-28 melanoma) was > 100 µM and the TGI (UACC-62 melanoma) was > 100 µM. For the same molecule, the TGI (SF-268 CNS) was > 100 µM, the TGI (MALME-3M melanoma) was > 100 µM and the TGI (LOX IMVI melanoma) was > 100 µM. For the same molecule, the TGI (K-562 leukemia) was > 100 µM, the TGI (MDA-MB-435) was > 100 µM and the TGI (OVCAR-8 ovarian) was > 100 µM. The TGI (SK-OV-3 ovarian) was > 100 µM, the TGI (UACC-257 melanoma) was > 100 µM and the TGI (SK-MEL-5 melanoma) was > 100 µM. The TGI (MDA-MB-231 breast) was > 100 µM, the TGI (NCI-H226 lung) was > 100 µM and the TGI (EKVX NSCLC) was > 100 µM. The TGI (HT29 colon) was > 100 µM, the TGI (SR leukemia) was > 100 µM and the TGI (SNB-19 CNS) was > 100 µM. The TGI (RXF 393 renal) was > 100 µM, the TGI (IGROV1 ovarian) was > 100 µM and the TGI (NCI/ADR-RES ovarian) was > 100 µM. The TGI (SF-295 CNS) was > 100 µM, the TGI (PC-3 prostate) was > 100 µM and the TGI (T-47D breast) was > 100 µM. For the same molecule, the TGI (M14 melanoma) was > 100 µM, the TGI (SW-620 colon) was > 100 µM and the TGI (UO-31 renal) was > 100 µM. For the same molecule, the TGI (ACHN renal) was > 100 µM, the TGI (KM12 colon) was > 100 µM and the TGI (HOP-62 NSCLC) was > 100 µM. For the same molecule, the TGI (SN12C renal) was > 100 µM, the TGI (BT-549 breast) was > 100 µM and the TGI (U251 CNS) was > 100 µM. The TGI (HCT-15 colon) was > 100 µM, the TGI (OVCAR-5 ovarian) was > 100 µM and the TGI (COLO 205 colon) was > 100 µM. The TGI (DU-145 prostate) was > 100 µM, the TGI (TK-10 renal) was > 100 µM and the TGI (MDA-N) was > 100 µM. The TGI (A549 NSCLC) was > 100 µM, the TGI (HS 578T breast) was > 100 µM and the TGI (HCT-116 colon) was > 100 µM. The TGI (OVCAR-4 ovarian) was > 100 µM, the TGI (786-0 renal) was > 100 µM and the TGI (HOP-92 NSCLC) was > 100 µM. For the same molecule, the TGI (SNB-75 CNS) was > 100 µM, the TGI (CAKI-1 renal) was > 100 µM and the TGI (MOLT-4 leukemia) was > 100 µM. The TGI (OVCAR-3 ovarian) was > 100 µM, the TGI (NCI-H522 lung) was > 100 µM and the TGI (SK-MEL-2 melanoma) was > 100 µM. For the same molecule, the TGI (NCI-H23 lung) was > 100 µM and the TGI (CCRF-CEM leukemia) was > 100 µM.

With `COc1ccc(/C=N/NC(=O)c2ccccc2Nc2ccccc2C(=O)N/N=C/c2ccc(OC)cc2)cc1` the TGI (RPMI-8226 leukemia) was > 100 µM, the TGI (SK-MEL-28 melanoma) was > 100 µM and the TGI (UACC-62 melanoma) was > 100 µM. The TGI (SF-268 CNS) was > 100 µM, the TGI (MALME-3M melanoma) was > 100 µM and the TGI (LOX IMVI melanoma) was > 100 µM. The TGI (K-562 leukemia) was > 100 µM, the TGI (MDA-MB-435) was > 100 µM and the TGI (OVCAR-8 ovarian) was > 100 µM. For the same molecule, the TGI (SK-OV-3 ovarian) was > 100 µM, the TGI (UACC-257 melanoma) was > 100 µM and the TGI (SK-MEL-5 melanoma) was > 100 µM. For the same molecule, the TGI (MDA-MB-231 breast) was > 100 µM, the TGI (NCI-H226 lung) was > 100 µM and the TGI (EKVX NSCLC) was > 100 µM. For the same molecule, the TGI (HT29 colon) was > 100 µM, the TGI (SR leukemia) was > 100 µM and the TGI (SNB-19 CNS) was > 100 µM. For the same molecule, the TGI (RXF 393 renal) was > 100 µM, the TGI (IGROV1 ovarian) was > 100 µM and the TGI (NCI/ADR-RES ovarian) was > 100 µM. For the same molecule, the TGI (SF-295 CNS) was > 100 µM, the TGI (PC-3 prostate) was > 100 µM and the TGI (NCI-H460 lung) was > 100 µM. For the same molecule, the TGI (T-47D breast) was > 100 µM, the TGI (M14 melanoma) was > 100 µM and the TGI (A498 renal) was > 100 µM. For the same molecule, the TGI (SW-620 colon) was > 100 µM, the TGI (UO-31 renal) was > 100 µM and the TGI (HCC-2998 colon) was > 100 µM. For the same molecule, the TGI (ACHN renal) was > 100 µM, the TGI (KM12 colon) was > 100 µM and the TGI (HOP-62 NSCLC) was > 100 µM. The TGI (MCF7 breast) was > 100 µM, the TGI (SN12C renal) was > 100 µM and the TGI (BT-549 breast) was > 100 µM. For the same molecule, the TGI (U251 CNS) was > 100 µM, the TGI (HCT-15 colon) was > 100 µM and the TGI (OVCAR-5 ovarian) was > 100 µM. The TGI (COLO 205 colon) was > 100 µM, the TGI (DU-145 prostate) was > 100 µM and the TGI (TK-10 renal) was > 100 µM. The TGI (MDA-N) was > 100 µM, the TGI (A549 NSCLC) was > 100 µM and the TGI (HCT-116 colon) was > 100 µM. For the same molecule, the TGI (OVCAR-4 ovarian) was > 100 µM, the TGI (786-0 renal) was > 100 µM and the TGI (HOP-92 NSCLC) was > 100 µM. For the same molecule, the TGI (SNB-75 CNS) was > 100 µM, the TGI (CAKI-1 renal) was > 100 µM and the TGI (MOLT-4 leukemia) was > 100 µM. The TGI (OVCAR-3 ovarian) was > 100 µM, the TGI (SK-MEL-2 melanoma) was > 100 µM and the TGI (NCI-H23 lung) was > 100 µM. The TGI (CCRF-CEM leukemia) was > 100 µM.
